# Measured values reported in paper PMC3006429 (PLoS ONE, 2010).
# Values joined by “and” are separate entries in the source; they are usually repeats but may differ in a detail not shown here. Equal values may be shown once. Read-outs that look alike come from different tables or passages of the source.
# Columns and labels:
# FMDV 3Dpol [1] = target: T1, FMDV 3Dpol (Foot-and-mouth disease virus, UniProt P03311); test: biochemical; conditions: IC50 of 3Dpol inhibition (gel-based)
# FMDV 3Dpol [2] = target: T1, FMDV 3Dpol; test: biochemical; format: biochemical
# [3] = target: Klenow Fragment (KF) of E. coli DNA polymerase I (Escherichia coli, UniProt P00582); format: biochemical
# Sequence of Klenow Fragment (KF) of E. coli DNA polymerase I (P00582 324-928): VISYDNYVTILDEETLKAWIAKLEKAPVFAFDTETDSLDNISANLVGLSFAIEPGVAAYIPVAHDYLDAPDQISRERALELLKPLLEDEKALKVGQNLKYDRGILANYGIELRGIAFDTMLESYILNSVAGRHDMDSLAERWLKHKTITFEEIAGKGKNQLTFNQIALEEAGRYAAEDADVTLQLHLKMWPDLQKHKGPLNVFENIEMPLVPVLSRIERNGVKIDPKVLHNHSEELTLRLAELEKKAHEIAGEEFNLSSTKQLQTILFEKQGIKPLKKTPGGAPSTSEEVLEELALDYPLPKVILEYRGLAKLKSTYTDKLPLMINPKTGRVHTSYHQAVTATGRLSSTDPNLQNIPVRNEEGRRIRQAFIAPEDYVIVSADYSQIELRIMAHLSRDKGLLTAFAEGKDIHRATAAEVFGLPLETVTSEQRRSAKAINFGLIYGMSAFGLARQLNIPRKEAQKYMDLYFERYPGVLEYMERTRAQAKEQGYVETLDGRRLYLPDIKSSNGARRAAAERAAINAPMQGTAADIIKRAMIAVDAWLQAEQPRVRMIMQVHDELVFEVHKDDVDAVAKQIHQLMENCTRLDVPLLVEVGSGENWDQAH
# in vitro = conditions: hamster
# [4] = target: HIV-1 reverse transcriptase (HIV-1 RT) (Human immunodeficiency virus type 1 group M subtype B, UniProt P03366); format: biochemical
# FMDV = conditions: cited from earlier work; for EC50: read-out: EC50 (FMDV replication in cell cultures); for EC90: read-out: EC90 (FMDV replication in cell cultures)
# WT 3Dpol = WT 3Dpol (Foot-and-mouth disease virus, UniProt P03311); test: biochemical; conditions: IC50 (filter binding assay)
# Sequence of WT 3Dpol (P03311 1858-2327 limits assumed): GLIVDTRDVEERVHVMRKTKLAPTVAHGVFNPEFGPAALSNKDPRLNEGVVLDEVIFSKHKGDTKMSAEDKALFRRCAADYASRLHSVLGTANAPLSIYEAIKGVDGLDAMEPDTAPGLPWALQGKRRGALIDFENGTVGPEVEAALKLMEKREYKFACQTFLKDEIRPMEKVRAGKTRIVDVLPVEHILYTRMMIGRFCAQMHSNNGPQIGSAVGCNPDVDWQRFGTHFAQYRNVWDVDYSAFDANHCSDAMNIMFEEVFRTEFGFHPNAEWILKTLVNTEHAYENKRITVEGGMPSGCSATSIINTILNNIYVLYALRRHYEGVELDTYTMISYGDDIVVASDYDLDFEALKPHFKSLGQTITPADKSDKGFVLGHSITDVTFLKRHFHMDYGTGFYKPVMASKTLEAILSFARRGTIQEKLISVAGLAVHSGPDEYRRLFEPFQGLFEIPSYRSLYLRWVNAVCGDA
# FMDV A24 Cruzeiro = test: microbe, parasite or virus in culture; format: cell-based, Foot-and-Mouth Disease Virus
# FMDV 3Dpol [5] = target: T1, FMDV 3Dpol; test: biochemical
# T1 sequence (P03311 1858-2327 limits assumed): as above
SMILES,IC50 (FMDV 3Dpol [1]),inhibition of KF polymerase activity [3],CC50 (in vitro),inhibition of HIV-1 RT polymerase activity [4],further results
O=S1(=O)C=C(CSc2cccs2)c2cc(Cl)ccc21 [7F8],10 µM,No significant inhibition,> 100 µM,No significant inhibition,kinetic mechanism of inhibition (FMDV 3Dpol [2]): non-competitive
NC(=O)c1ncn([C@@H]2O[C@H](CO)[C@@H](O)[C@H]2O)n1 [ribavirin],,,,,EC50 (FMDV): 970 µM; EC90 (FMDV): 1700 µM
O=C1C(Cl)=C(Sc2ccccc2Br)C(=O)c2ccccc21 [8C5],5.4 µM,No significant inhibition,55 µM,No significant inhibition,IC50 (WT 3Dpol): 5.4 µM; inhibition of viral replication (FMDV A24 Cruzeiro): inhibition of viral replication
"Cc1cn([C@@H]2O[C@H](COP(=O)(O)OP(=O)(O)OP(=O)(O)O)C[C@H]2O)c(=O)[nH]c1=O [DMUT, 3′-deoxy-5-methyl uridine triphosphate]",,,,,IC50 (FMDV 3Dpol [5]): 0.68 µM
O=S(=O)(NNc1ncnc2sccc12)c1ccc(Cl)cc1 [5D9],12 µM,No significant inhibition,> 100 µM,No significant inhibition,"Ki (FMDV 3Dpol [2]): 9.4 ± 2.5 µM; kinetic mechanism of inhibition (FMDV 3Dpol [2]): non-competitive; antiviral potency relative to ribavirin (FMDV A24 Cruzeiro): ~80 fold; inhibition of viral replication (FMDV A24 Cruzeiro): inhibition of viral replication; EC50 (FMDV A24 Cruzeiro; Foot-and-mouth disease virus, BHK-21, 24 h, read-out: EC50 (virus production in FMDV-infected cells)): 12 µM; EC90 (FMDV A24 Cruzeiro; Foot-and-mouth disease virus, BHK-21, 24 h, read-out: EC90 (virus production in FMDV-infected cells)): 20 µM; inhibition at 20 µM (FMDV A24 Cruzeiro; Foot-and-mouth disease virus, BHK-21, read-out: inhibition of virus replication): 90%"
O=C(Sc1cccs1)c1cncc(C#Cc2ccccc2)c1 [4H6],8 µM,No significant inhibition,> 100 µM,No significant inhibition,
C[C@@]1(O)[C@H](O)[C@@H](CO)O[C@H]1n1ccc(N)nc1=O [2′-C-methylcytidine],,,,,EC50 (FMDV): 10 µM; EC90 (FMDV): 15 µM
CCOC(=O)/C(=N\Nc1ccc(Br)cc1)C(=O)CSC#N [9A3],10 µM,No significant inhibition,> 100 µM,No significant inhibition,
N#CC(C(=O)Nc1cccc(C(F)(F)F)c1)C(=S)Nc1ccccc1Cl (centres unmarked) [3A11],~2 µM and 2 µM,,70 µM,,
O=[N+]([O-])c1ccc(Sc2ccc(Cl)cc2Cl)c2nonc12 [1A8],17.8 µM,No significant inhibition,,No significant inhibition,IC50 (WT 3Dpol): 17.4 µM and 17.8 µM
